Results taken from ChEMBL document CHEMBL4304811, “Development of a Water-Soluble Indolylmaleimide Derivative IM-93 Showing Dual Inhibition of Ferroptosis and NETosis” (ACS Med Chem Lett, 2019).
Calls of active or inactive are those of the source. No cut-off for these calls is given here.

Tests used:
[1] = target: Serine/threonine-protein kinase mTOR (Homo sapiens) (UniProt P42345); experiment: Binding affinity to wild-type human partial length MTOR (L1382 to W2549 residues) expressed in mammalian expression system assessed as residual binding level at 10 uM by Kinomescan method relative to control
[2] = target: Cyclin-dependent kinase 17 (Homo sapiens) (UniProt Q00537); experiment: Binding affinity to wild-type human full length PCTK2 (M1 to F523 residues) expressed in bacterial expression system assessed as residual binding level at 10 uM by Kinomescan method relative to control
[3] = target: Activated CDC42 kinase 1 (Homo sapiens) (UniProt Q07912); experiment: Binding affinity to wild-type human partial length TNK2 (S159 to D474 residues) expressed in bacterial expression system assessed as residual binding level at 10 uM by Kinomescan method relative to control
[4] = target: Ephrin type-B receptor 2 (Homo sapiens) (UniProt P29323); experiment: Binding affinity to wild-type human partial length EPHB2 (I597 to L902 residues) expressed in bacterial expression system assessed as residual binding level at 10 uM by Kinomescan method relative to control
[5] = target: Ephrin type-B receptor 4 (Homo sapiens) (UniProt P54760); experiment: Binding affinity to wild-type human partial length EPHB4 (H585 to G892 residues) expressed in bacterial expression system assessed as residual binding level at 10 uM by Kinomescan method relative to control
[6] = target: cGMP-dependent protein kinase 2 (Homo sapiens) (UniProt Q13237); experiment: Binding affinity to wild-type human partial length PRKG2 (S422 to F762 residues) expressed in mammalian expression system assessed as residual binding level at 10 uM by Kinomescan method relative to control
Neutrophil = experiment: Inhibition of PMA-induced NETosis in human neutrophils assessed as inhibition of ROS production at 25 uM pretreated for 25 mins followed by PMA stimulation and measured after 20 mins by DCFH-DA based flow cytometry; format: functional, cell-based
[7] = target: Myosin light chain kinase 2, skeletal/cardiac muscle (Homo sapiens) (UniProt Q9H1R3); experiment: Binding affinity to wild-type human partial length MYLK2 (D258 to K570 residues) expressed in bacterial expression system assessed as residual binding level at 10 uM by Kinomescan method relative to control
[8] = target: Hepatocyte growth factor receptor (Homo sapiens) (UniProt P08581); experiment: Binding affinity to wild-type human partial length MET (D1010 to S1367 residues) expressed in bacterial expression system assessed as residual binding level at 10 uM by Kinomescan method relative to control
[9] = test system: Leucine-rich repeat serine/threonine-protein kinase 2 (Homo sapiens), Q5S007 [G2019S]; experiment: Binding affinity to human partial length LRRK2 G2019S mutant (H970 to E2527 residues) expressed in mammalian expression system assessed as residual binding level at 10 uM by Kinomescan method relative to control
[10] = target: Tyrosine-protein kinase Fes/Fps (Homo sapiens) (UniProt P07332); experiment: Binding affinity to wild-type human partial length FES (I527 to R822 residues) expressed in bacterial expression system assessed as residual binding level at 10 uM by Kinomescan method relative to control
[11] = target: Tyrosine-protein kinase HCK (Homo sapiens) (UniProt P08631); experiment: Binding affinity to wild-type human full length HCK (M22 to P526 residues) expressed in bacterial expression system assessed as residual binding level at 10 uM by Kinomescan method relative to control
[12] = target: Cyclin-dependent kinase 5 (Homo sapiens) (UniProt Q00535); experiment: Binding affinity to wild-type human full length CDK5 (M1 to P292 residues) expressed in bacterial expression system assessed as residual binding level at 10 uM by Kinomescan method relative to control
[13] = test system: Epidermal growth factor receptor (Homo sapiens), P00533 [UNDEFINED MUTATION]; experiment: Binding affinity to human partial length EGFR S752-I759del mutant expressed in bacterial expression system assessed as residual binding level at 10 uM by Kinomescan method relative to control
[14] = target: Mitogen-activated protein kinase kinase kinase 20 (Homo sapiens) (UniProt Q9NYL2); experiment: Binding affinity to wild-type human partial length ZAK (M1 to L331 residues) expressed in bacterial expression system assessed as residual binding level at 10 uM by Kinomescan method relative to control
[15] = target: MAP kinase-activated protein kinase 5 (Homo sapiens) (UniProt Q8IW41); experiment: Binding affinity to wild-type human partial length MAPKAPK5 (M1 to D322 residues) expressed in mammalian expression system assessed as residual binding level at 10 uM by Kinomescan method relative to control
[16] = target: Serine/threonine-protein kinase 3 (Homo sapiens) (UniProt Q13188); experiment: Binding affinity to wild-type human partial length MST2 (D17 to E318 residues) expressed in bacterial expression system assessed as residual binding level at 10 uM by Kinomescan method relative to control
[17] = target: Platelet-derived growth factor receptor alpha (Homo sapiens) (UniProt P16234); experiment: Binding affinity to wild-type human partial length PDGFRA (V575 to D1002 residues) expressed in mammalian expression system assessed as residual binding level at 10 uM by Kinomescan method relative to control
[18] = target: Serine/threonine-protein kinase/endoribonuclease IRE1 (Homo sapiens) (UniProt O75460); experiment: Binding affinity to wild-type human partial length ERN1 (S551 to E852 residues) expressed in mammalian expression system assessed as residual binding level at 10 uM by Kinomescan method relative to control
[19] = target: Bone morphogenetic protein receptor type-2 (Homo sapiens) (UniProt Q13873); experiment: Binding affinity to wild-type human partial length BMPR2 (R179 to Q526 residues) expressed in mammalian expression system assessed as residual binding level at 10 uM by Kinomescan method relative to control
[20] = test system: Phosphatidylinositol 4,5-bisphosphate 3-kinase catalytic subunit alpha isoform (Homo sapiens), P42336 [I800L]; experiment: Binding affinity to human partial length PIK3CA I800L mutant (R108 to N1068 residues) expressed in mammalian expression system assessed as residual binding level at 10 uM by Kinomescan method relative to control
[21] = target: Serine/threonine-protein kinase TAO2 (Homo sapiens) (UniProt Q9UL54); experiment: Binding affinity to wild-type human partial length TAOK2 (M1 to A320 residues) expressed in mammalian expression system assessed as residual binding level at 10 uM by Kinomescan method relative to control
NIH3T3 = experiment: Inhibition of TBHP-induced ferroptosis in mouse NIH/3T3 cells after 12 hrs by WST-8 assay; format: functional, cell-based; conditions: NIH3T3, 12 h
[22] = target: Ribosomal protein S6 kinase alpha-6 (Homo sapiens) (UniProt Q9UK32); experiment: Binding affinity to wild-type human partial length N- terminal RSK4 kinase domain 1 (M1 to E397 residues) expressed in mammalian expression system assessed as residual binding level at 10 uM by Kinomescan method relative to control
[23] = test system: Hepatocyte growth factor receptor (Homo sapiens), P08581 [Y1235D]; experiment: Binding affinity to human partial length MET Y1235D mutant (D1010 to S1367 residues) expressed in bacterial expression system assessed as residual binding level at 10 uM by Kinomescan method relative to control

Epidermal growth factor receptor (Homo sapiens), P00533 [UNDEFINED MUTATION], sequence (P00533 whole entry, looked up, stated change not applied, the tested form may be a part): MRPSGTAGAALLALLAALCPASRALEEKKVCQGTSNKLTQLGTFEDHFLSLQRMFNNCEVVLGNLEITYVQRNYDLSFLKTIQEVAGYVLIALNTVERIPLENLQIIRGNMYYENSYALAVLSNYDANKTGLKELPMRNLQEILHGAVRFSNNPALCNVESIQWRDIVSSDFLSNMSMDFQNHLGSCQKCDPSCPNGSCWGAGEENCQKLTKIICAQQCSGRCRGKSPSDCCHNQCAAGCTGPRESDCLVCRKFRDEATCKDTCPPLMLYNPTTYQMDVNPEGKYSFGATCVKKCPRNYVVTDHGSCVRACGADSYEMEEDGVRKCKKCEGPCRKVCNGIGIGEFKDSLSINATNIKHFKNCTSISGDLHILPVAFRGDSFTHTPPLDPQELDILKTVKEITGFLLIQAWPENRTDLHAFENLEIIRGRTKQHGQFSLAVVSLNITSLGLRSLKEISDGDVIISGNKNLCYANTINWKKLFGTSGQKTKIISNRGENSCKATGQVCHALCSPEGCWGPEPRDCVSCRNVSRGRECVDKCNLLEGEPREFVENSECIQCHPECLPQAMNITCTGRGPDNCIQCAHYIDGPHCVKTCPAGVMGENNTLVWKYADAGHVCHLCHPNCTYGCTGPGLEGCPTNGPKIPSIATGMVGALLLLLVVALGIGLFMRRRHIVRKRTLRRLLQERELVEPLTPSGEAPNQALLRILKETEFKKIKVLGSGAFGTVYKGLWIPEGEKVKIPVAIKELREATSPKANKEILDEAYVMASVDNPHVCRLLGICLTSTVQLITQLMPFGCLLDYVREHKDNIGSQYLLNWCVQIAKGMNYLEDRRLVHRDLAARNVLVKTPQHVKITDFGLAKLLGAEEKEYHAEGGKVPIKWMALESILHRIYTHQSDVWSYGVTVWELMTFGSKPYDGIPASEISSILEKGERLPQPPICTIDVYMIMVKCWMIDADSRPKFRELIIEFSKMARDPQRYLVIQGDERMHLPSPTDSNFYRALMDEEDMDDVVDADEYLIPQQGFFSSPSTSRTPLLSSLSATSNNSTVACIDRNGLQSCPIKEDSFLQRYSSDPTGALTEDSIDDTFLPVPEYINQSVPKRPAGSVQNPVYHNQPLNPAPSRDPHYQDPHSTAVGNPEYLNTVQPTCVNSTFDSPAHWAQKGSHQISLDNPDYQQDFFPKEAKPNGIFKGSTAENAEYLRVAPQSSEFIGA
Cyclin-dependent kinase 5 (Homo sapiens), sequence (Q00535 whole entry, looked up, the tested form may be a part): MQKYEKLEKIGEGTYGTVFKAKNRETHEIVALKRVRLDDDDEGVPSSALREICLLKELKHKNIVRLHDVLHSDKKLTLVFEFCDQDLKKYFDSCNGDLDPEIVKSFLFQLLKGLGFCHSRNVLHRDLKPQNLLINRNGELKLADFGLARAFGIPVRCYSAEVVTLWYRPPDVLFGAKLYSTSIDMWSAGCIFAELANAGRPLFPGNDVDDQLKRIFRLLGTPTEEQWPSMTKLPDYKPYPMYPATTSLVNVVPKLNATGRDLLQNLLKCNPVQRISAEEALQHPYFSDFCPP
Cyclin-dependent kinase 17 (Homo sapiens), sequence (Q00537 whole entry, looked up, the tested form may be a part): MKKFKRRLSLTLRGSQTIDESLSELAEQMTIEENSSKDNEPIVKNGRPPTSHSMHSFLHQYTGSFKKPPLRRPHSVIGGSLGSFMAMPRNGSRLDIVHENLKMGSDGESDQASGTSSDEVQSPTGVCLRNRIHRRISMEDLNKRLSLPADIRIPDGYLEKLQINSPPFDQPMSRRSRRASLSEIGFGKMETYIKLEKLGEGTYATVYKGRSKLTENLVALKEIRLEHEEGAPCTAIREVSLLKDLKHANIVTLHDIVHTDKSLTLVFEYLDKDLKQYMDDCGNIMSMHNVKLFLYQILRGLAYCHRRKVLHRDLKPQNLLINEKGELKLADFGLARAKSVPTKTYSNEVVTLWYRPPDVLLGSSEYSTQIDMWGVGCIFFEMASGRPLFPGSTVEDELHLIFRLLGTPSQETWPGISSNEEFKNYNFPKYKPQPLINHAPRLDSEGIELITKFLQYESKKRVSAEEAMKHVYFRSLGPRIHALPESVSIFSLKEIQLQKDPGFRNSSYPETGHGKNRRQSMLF
MAP kinase-activated protein kinase 5 (Homo sapiens), sequence (Q8IW41 whole entry, the tested form may be a part): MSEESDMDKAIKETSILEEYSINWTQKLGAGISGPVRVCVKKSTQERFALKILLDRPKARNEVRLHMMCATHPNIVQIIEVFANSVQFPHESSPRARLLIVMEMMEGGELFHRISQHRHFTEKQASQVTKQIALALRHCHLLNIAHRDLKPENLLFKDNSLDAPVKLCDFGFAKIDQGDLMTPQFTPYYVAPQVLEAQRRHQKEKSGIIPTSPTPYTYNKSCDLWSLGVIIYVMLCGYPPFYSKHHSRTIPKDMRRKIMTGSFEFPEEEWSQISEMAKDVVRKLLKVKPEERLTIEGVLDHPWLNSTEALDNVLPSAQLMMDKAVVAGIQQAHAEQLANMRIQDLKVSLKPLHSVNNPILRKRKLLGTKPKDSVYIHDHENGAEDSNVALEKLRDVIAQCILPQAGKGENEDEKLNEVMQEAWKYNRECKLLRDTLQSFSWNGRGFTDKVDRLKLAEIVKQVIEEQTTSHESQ
Phosphatidylinositol 4,5-bisphosphate 3-kinase catalytic subunit alpha isoform (Homo sapiens), P42336 [I800L], sequence (P42336 whole entry I800L, the tested form may be a part, canonical isoform): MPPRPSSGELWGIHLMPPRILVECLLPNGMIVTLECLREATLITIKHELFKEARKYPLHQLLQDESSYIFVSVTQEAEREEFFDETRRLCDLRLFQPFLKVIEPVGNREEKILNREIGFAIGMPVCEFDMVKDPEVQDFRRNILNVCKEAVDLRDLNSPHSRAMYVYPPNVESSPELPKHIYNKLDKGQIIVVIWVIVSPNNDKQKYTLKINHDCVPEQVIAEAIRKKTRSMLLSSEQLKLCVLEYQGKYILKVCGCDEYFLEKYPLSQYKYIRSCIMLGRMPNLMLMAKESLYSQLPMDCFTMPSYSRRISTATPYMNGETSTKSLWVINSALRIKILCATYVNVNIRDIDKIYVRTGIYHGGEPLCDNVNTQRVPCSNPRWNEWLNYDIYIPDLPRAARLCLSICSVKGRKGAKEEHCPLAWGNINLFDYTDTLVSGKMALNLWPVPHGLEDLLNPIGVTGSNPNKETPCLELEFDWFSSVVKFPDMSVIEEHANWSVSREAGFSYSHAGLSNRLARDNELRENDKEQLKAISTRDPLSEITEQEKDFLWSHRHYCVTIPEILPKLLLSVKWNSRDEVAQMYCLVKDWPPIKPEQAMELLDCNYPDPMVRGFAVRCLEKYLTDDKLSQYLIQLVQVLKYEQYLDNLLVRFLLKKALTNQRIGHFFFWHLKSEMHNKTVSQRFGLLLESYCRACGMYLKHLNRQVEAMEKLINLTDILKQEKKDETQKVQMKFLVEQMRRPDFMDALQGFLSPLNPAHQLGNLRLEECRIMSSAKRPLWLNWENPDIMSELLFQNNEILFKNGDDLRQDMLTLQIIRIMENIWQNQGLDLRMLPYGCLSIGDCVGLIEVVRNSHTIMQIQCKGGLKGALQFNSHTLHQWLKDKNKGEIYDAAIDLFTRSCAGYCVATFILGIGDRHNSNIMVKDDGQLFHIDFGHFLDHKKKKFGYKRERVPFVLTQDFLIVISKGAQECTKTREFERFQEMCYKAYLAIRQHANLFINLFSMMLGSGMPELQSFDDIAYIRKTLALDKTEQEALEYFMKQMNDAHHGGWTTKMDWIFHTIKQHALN
Bone morphogenetic protein receptor type-2 (Homo sapiens), sequence (Q13873 whole entry, the tested form may be a part, canonical isoform): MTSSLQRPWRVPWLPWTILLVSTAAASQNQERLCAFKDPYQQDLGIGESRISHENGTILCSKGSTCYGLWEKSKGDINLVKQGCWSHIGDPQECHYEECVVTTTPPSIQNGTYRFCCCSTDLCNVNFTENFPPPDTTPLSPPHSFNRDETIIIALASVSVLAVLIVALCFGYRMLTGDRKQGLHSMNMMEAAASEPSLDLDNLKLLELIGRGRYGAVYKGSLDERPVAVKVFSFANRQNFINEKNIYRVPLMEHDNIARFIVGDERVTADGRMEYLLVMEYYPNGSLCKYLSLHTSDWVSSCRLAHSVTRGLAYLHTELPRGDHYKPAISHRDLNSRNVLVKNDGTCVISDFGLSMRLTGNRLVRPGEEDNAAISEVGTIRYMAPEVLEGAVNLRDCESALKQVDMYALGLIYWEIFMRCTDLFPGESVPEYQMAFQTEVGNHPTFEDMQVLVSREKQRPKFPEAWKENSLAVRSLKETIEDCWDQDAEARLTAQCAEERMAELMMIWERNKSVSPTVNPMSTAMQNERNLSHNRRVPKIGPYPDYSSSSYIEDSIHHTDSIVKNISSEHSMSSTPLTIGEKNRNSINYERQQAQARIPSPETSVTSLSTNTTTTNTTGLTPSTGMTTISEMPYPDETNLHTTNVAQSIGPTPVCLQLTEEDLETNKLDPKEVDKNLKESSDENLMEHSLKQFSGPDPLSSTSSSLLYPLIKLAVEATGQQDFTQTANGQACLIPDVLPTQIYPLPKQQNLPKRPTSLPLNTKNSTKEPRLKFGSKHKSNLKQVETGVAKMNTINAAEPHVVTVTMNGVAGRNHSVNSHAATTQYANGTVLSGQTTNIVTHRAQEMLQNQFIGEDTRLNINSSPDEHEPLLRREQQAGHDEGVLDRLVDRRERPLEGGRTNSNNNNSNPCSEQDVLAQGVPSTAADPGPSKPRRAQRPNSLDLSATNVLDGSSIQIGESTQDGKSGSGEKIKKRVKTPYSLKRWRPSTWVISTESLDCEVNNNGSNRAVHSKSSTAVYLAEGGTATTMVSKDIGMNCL

`CC(C)N1C(=O)C(NCCCN(C)C)=C(c2cn(C)c3ccccc23)C1=O.Cl` was tested, and the Activity [1] was 87%, the Activity [2] was 99% and the Activity [3] was 100%. It also gave an Activity [4] of 97%, an Activity [5] of 100% and an Activity [6] of 88%. The inhibition (Neutrophil) was “inactive”, the Activity [7] was 100% and the Activity [8] was 97%. It also gave an Activity [9] of 91%, an Activity [10] of 100% and an Activity [11] of 100%. For the same molecule, the Activity [12] was 96%, the Activity [13] was 97% and the Activity [14] was 84%. For the same molecule, the Activity [15] was 71%, the Activity [16] was 100% and the Activity [17] was 86%. For the same molecule, the Activity [18] was 85%, the Activity [19] was 100% and the Activity [20] was 92%. It also gave an Activity [21] of 94%, an IC50 (NIH3T3) of 1800 nM and an Activity [22] of 94%. The Activity [23] was 99%.
